Reference: patent US7144591B2, “Composition containing citronella java oil and use thereof for repelling insects” (priority 2002, dated 2006)

Tested on: Aedes aegypti (yellow fever mosquitoes)
Experiment: Repellent activity with respect to mosquitoes, treated forearm in cage (Swiss Tropic Institute method)
Assay type: in vivo
Conditions: 2 ml on 250 cm^2 forearm, 400 mosquitoes in cage, hourly 10 min exposure

Structure (SMILES): O=C(O)CC(O)(CC(=O)O)C(=O)O [PC4, citric acid]
- repellent activity with respect to mosquitoes (result in words): surprisingly bad results
